Experimental data from patent US8598365B2, “Herbicides” (Syngenta Limited, priority 2007, dated 2013).

system: Alopecurus myosuroides (ALOMY); assay: Example B pre-emergence herbicidal activity; type: in vivo; conditions: 312 h, rate 250 g/ha, evaluated after 13 days, read-out: Pre-Emergence Activity ALOMY (100=total damage to plant; 0=no damage to plant)
Procedure: (§1) Seeds of a variety of test species were sown in standard soil in pots. After cultivation for one day (pre-emergence) or after 8 days cultivation (post-emergence) under controlled conditions in a glasshouse (at 24/16° C., day/night; 14 hours light; 65% humidity), the plants were sprayed with an aqueous spray solution derived from the formulation of the technical active ingredient in acetone/water (50:50) solution containing 0.5% Tween 20 (polyoxyethelyene sorbitan monolaurate, CAS RN 9005-64-5).
(§2) The test plants were then grown in a glasshouse under controlled conditions in a glasshouse (at 24/16° C., day/night; 14 hours light; 65% humidity) and watered twice daily. After 13 days for pre and post-emergence, the test was evaluated (100=total damage to plant; 0=no damage to plant).
(§3) Alopecurus myosuroides (ALOMY), Avena fatua (AVEFA), Setaria faberi (SETFA), Echinochloa crus-galli (ECHCG), Solanum nigrum (SOLNI) and Amaranthus retoflexus (AMARE)

Row | Compound | pest or weed control at 250 g/ha [%]
1 | Cc1sc(-c2ccc(Cl)c(C(F)(F)F)c2)nc1C1=C(OC(=O)C(C)(C)C)[C@H]2CC[C@H](C2)C1=O [Compound P4] | 0
2 | Cc1sc(-c2ccc(Br)cn2)nc1C1C(=O)[C@@H]2CC[C@@H](C2)C1=O (stereo partly shown) [Compound T35] | 30
3 | CCc1sc(-c2ccc(Br)cc2C)nc1C1C(=O)[C@@H]2CC[C@@H](C2)C1=O (stereo partly shown) [Compound T38] | 60
4 | Cc1ccc(-c2nc(C3C(=O)[C@@H]4CC[C@@H](C4)C3=O)c(C)s2)cc1 (stereo partly shown) [Compound T11] | 40

system: Amaranthus retoflexus (AMARE); assay: Example B pre-emergence herbicidal activity; type: in vivo; conditions: Amaranthus retroflexus, 312 h, rate 250 g/ha, evaluated after 13 days, read-out: Pre-Emergence Activity AMARE (100=total damage to plant; 0=no damage to plant)
Procedure: as §1, §2, §3

Row | Compound | pest or weed control at 250 g/ha [%]
5 | Cc1sc(-c2ccc(Cl)c(C(F)(F)F)c2)nc1C1=C(OC(=O)C(C)(C)C)[C@H]2CC[C@H](C2)C1=O [Compound P4] | 40
6 | Cc1sc(-c2ccc(Br)cn2)nc1C1C(=O)[C@@H]2CC[C@@H](C2)C1=O (stereo partly shown) [Compound T35] | 0
7 | CCc1sc(-c2ccc(Br)cc2C)nc1C1C(=O)[C@@H]2CC[C@@H](C2)C1=O (stereo partly shown) [Compound T38] | 0
8 | Cc1ccc(-c2nc(C3C(=O)[C@@H]4CC[C@@H](C4)C3=O)c(C)s2)cc1 (stereo partly shown) [Compound T11] | 0

system: Avena fatua (AVEFA); assay: Example B pre-emergence herbicidal activity; type: in vivo; conditions: 312 h, rate 250 g/ha, evaluated after 13 days, read-out: Pre-Emergence Activity AVEFA (100=total damage to plant; 0=no damage to plant)
Procedure: as §1, §2, §3

Row | Compound | pest or weed control at 250 g/ha [%]
9 | Cc1sc(-c2ccc(Cl)c(C(F)(F)F)c2)nc1C1=C(OC(=O)C(C)(C)C)[C@H]2CC[C@H](C2)C1=O [Compound P4] | 0
10 | Cc1sc(-c2ccc(Br)cn2)nc1C1C(=O)[C@@H]2CC[C@@H](C2)C1=O (stereo partly shown) [Compound T35] | 0
11 | CCc1sc(-c2ccc(Br)cc2C)nc1C1C(=O)[C@@H]2CC[C@@H](C2)C1=O (stereo partly shown) [Compound T38] | 50
12 | Cc1ccc(-c2nc(C3C(=O)[C@@H]4CC[C@@H](C4)C3=O)c(C)s2)cc1 (stereo partly shown) [Compound T11] | 0

system: Echinochloa crus-galli (ECHCG); assay: Example B pre-emergence herbicidal activity; type: in vivo; conditions: 312 h, rate 250 g/ha, evaluated after 13 days, read-out: Pre-Emergence Activity ECHCG (100=total damage to plant; 0=no damage to plant)
Procedure: as §1, §2, §3

Row | Compound | pest or weed control at 250 g/ha [%]
13 | Cc1sc(-c2ccc(Cl)c(C(F)(F)F)c2)nc1C1=C(OC(=O)C(C)(C)C)[C@H]2CC[C@H](C2)C1=O [Compound P4] | 0
14 | Cc1sc(-c2ccc(Br)cn2)nc1C1C(=O)[C@@H]2CC[C@@H](C2)C1=O (stereo partly shown) [Compound T35] | 90
15 | CCc1sc(-c2ccc(Br)cc2C)nc1C1C(=O)[C@@H]2CC[C@@H](C2)C1=O (stereo partly shown) [Compound T38] | 70
16 | Cc1ccc(-c2nc(C3C(=O)[C@@H]4CC[C@@H](C4)C3=O)c(C)s2)cc1 (stereo partly shown) [Compound T11] | 70

system: Setaria faberi (SETFA); assay: Example B pre-emergence herbicidal activity; type: in vivo; conditions: 312 h, rate 250 g/ha, evaluated after 13 days, read-out: Pre-Emergence Activity SETFA (100=total damage to plant; 0=no damage to plant)
Procedure: as §1, §2, §3

Row | Compound | pest or weed control at 250 g/ha [%]
17 | Cc1sc(-c2ccc(Cl)c(C(F)(F)F)c2)nc1C1=C(OC(=O)C(C)(C)C)[C@H]2CC[C@H](C2)C1=O [Compound P4] | 90
18 | Cc1sc(-c2ccc(Br)cn2)nc1C1C(=O)[C@@H]2CC[C@@H](C2)C1=O (stereo partly shown) [Compound T35] | 100
19 | CCc1sc(-c2ccc(Br)cc2C)nc1C1C(=O)[C@@H]2CC[C@@H](C2)C1=O (stereo partly shown) [Compound T38] | 100
20 | Cc1ccc(-c2nc(C3C(=O)[C@@H]4CC[C@@H](C4)C3=O)c(C)s2)cc1 (stereo partly shown) [Compound T11] | 0

system: Alopecurus myosuroides (ALOMY); assay: Example B post-emergence herbicidal activity; type: in vivo; conditions: 312 h, rate 250 g/ha, evaluated after 13 days, read-out: Post-emergence activity ALOMY (100=total damage to plant; 0=no damage to plant)
Outline: (§4)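 Glasshouse pot test, 24/16 °C, 14 h light, 65% RH, watered twice daily. Spray timing: day 1 pre-em., day 8 post-em.; vehicle acetone/water 50:50 + 0.5% Tween 20. Readout 13 d, 0–100% damage.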

Row | Compound | pest or weed control at 250 g/ha [%]
21 | Cc1sc(-c2ccc(Cl)c(C(F)(F)F)c2)nc1C1=C(OC(=O)C(C)(C)C)[C@H]2CC[C@H](C2)C1=O [Compound P4] | 20
22 | Cc1sc(-c2ccc(Br)cn2)nc1C1C(=O)[C@@H]2CC[C@@H](C2)C1=O (stereo partly shown) [Compound T35] | 100
23 | CCc1sc(-c2ccc(Br)cc2C)nc1C1C(=O)[C@@H]2CC[C@@H](C2)C1=O (stereo partly shown) [Compound T38] | 100
24 | Cc1ccc(-c2nc(C3C(=O)[C@@H]4CC[C@@H](C4)C3=O)c(C)s2)cc1 (stereo partly shown) [Compound T11] | 90

system: Amaranthus retoflexus (AMARE); assay: Example B post-emergence herbicidal activity; type: in vivo; conditions: Amaranthus retroflexus, 312 h, rate 250 g/ha, evaluated after 13 days, read-out: Post-emergence activity AMARE (100=total damage to plant; 0=no damage to plant)
Outline: as §4

Row | Compound | pest or weed control at 250 g/ha [%]
25 | Cc1sc(-c2ccc(Cl)c(C(F)(F)F)c2)nc1C1=C(OC(=O)C(C)(C)C)[C@H]2CC[C@H](C2)C1=O [Compound P4] | 0
26 | Cc1sc(-c2ccc(Br)cn2)nc1C1C(=O)[C@@H]2CC[C@@H](C2)C1=O (stereo partly shown) [Compound T35] | 0
27 | CCc1sc(-c2ccc(Br)cc2C)nc1C1C(=O)[C@@H]2CC[C@@H](C2)C1=O (stereo partly shown) [Compound T38] | 0
28 | Cc1ccc(-c2nc(C3C(=O)[C@@H]4CC[C@@H](C4)C3=O)c(C)s2)cc1 (stereo partly shown) [Compound T11] | 0

system: Avena fatua (AVEFA); assay: Example B post-emergence herbicidal activity; type: in vivo; conditions: 312 h, rate 250 g/ha, evaluated after 13 days, read-out: Post-emergence activity AVEFA (100=total damage to plant; 0=no damage to plant)
Outline: as §4

Row | Compound | pest or weed control at 250 g/ha [%]
29 | Cc1sc(-c2ccc(Cl)c(C(F)(F)F)c2)nc1C1=C(OC(=O)C(C)(C)C)[C@H]2CC[C@H](C2)C1=O [Compound P4] | 0
30 | Cc1sc(-c2ccc(Br)cn2)nc1C1C(=O)[C@@H]2CC[C@@H](C2)C1=O (stereo partly shown) [Compound T35] | 80
31 | CCc1sc(-c2ccc(Br)cc2C)nc1C1C(=O)[C@@H]2CC[C@@H](C2)C1=O (stereo partly shown) [Compound T38] | 100
32 | Cc1ccc(-c2nc(C3C(=O)[C@@H]4CC[C@@H](C4)C3=O)c(C)s2)cc1 (stereo partly shown) [Compound T11] | 40

system: Echinochloa crus-galli (ECHCG); assay: Example B post-emergence herbicidal activity; type: in vivo; conditions: 312 h, rate 250 g/ha, evaluated after 13 days, read-out: Post-emergence activity ECHCG (100=total damage to plant; 0=no damage to plant)
Outline: as §4

Row | Compound | pest or weed control at 250 g/ha [%]
33 | Cc1sc(-c2ccc(Cl)c(C(F)(F)F)c2)nc1C1=C(OC(=O)C(C)(C)C)[C@H]2CC[C@H](C2)C1=O [Compound P4] | 80
34 | Cc1sc(-c2ccc(Br)cn2)nc1C1C(=O)[C@@H]2CC[C@@H](C2)C1=O (stereo partly shown) [Compound T35] | 100
35 | CCc1sc(-c2ccc(Br)cc2C)nc1C1C(=O)[C@@H]2CC[C@@H](C2)C1=O (stereo partly shown) [Compound T38] | 100
36 | Cc1ccc(-c2nc(C3C(=O)[C@@H]4CC[C@@H](C4)C3=O)c(C)s2)cc1 (stereo partly shown) [Compound T11] | 100

system: Setaria faberi (SETFA); assay: Example B post-emergence herbicidal activity; type: in vivo; conditions: 312 h, rate 250 g/ha, evaluated after 13 days, read-out: Post-emergence activity SETFA (100=total damage to plant; 0=no damage to plant)
Outline: as §4

Row | Compound | pest or weed control at 250 g/ha [%]
37 | Cc1sc(-c2ccc(Cl)c(C(F)(F)F)c2)nc1C1=C(OC(=O)C(C)(C)C)[C@H]2CC[C@H](C2)C1=O [Compound P4] | 80
38 | Cc1sc(-c2ccc(Br)cn2)nc1C1C(=O)[C@@H]2CC[C@@H](C2)C1=O (stereo partly shown) [Compound T35] | 100
39 | CCc1sc(-c2ccc(Br)cc2C)nc1C1C(=O)[C@@H]2CC[C@@H](C2)C1=O (stereo partly shown) [Compound T38] | 100
40 | Cc1ccc(-c2nc(C3C(=O)[C@@H]4CC[C@@H](C4)C3=O)c(C)s2)cc1 (stereo partly shown) [Compound T11] | 80
